Consider five substances from patent publication US20070265201A1, “INHIBITORS OF IN[…] TRA[…] FROM HCMV PROTEIN IE2” (priority 2005, published 2007).

“Also recorded” adds a separate entry of the source. Ends that are not written are not given here.

The test system of one assay is IL-1β promoter. Nature of the assay: IL-1β promoter (HT) luciferase gene reporter assay, transient transfection of HeLa-S3 cells with Spi-1 and C/EBPβ expression vectors. Type of assay: cell-based, human. The settings on record: for inhibition of cooperative transactivation of the IL-1β promoter: HT reporter with Spi-1 and C/EBP, absence of full-length IE2, titrated fragment vector, FIG. 2A. An excerpt:
FIGS. 1A-1D depict cooperative transactivation of the IL-1B promoter by Spi-1, C/EBPβ and IE2. FIG. 1A is a schematic of the IL-1B promoter showing two composite Spi-1-C/EBPβ binding sites in proximity to the transcription start site. The full-length promoter (HT) was spliced into a vector containing the gene reporter firefly luciferase and used in transient transfection assays in HeLa-S3 cells. FIG. 1B depicts dose-response of HT reporter to titrated Spi-1 expression vector and a fixed amount of cotransfected C/EBPβ expression vector. FIG. 1C depicts dose-response of HT reporter to titrated C/EBPβ expression vector and a fixed amount of Spi-1 expression vector. FIG. 1D depicts functional cooperativity with IE2. The HT reporter was contransfected with titrated Spi-1 expression vector (open bars) or fixed amount of C/EBPβ expression vector (checkerboard bars), or both C/EBPβ and IE2 expression vectors (hatched bars).
The data shown here are pooled from three independent experiments. […] The indicated transfection groups were con-transfected with titrated amounts of IE2 291-364 or 291-343 expression vectors. […] The experiment described by FIG. 2B is similar to that described by FIG. 2A except that wild type IE2 was also added to the indicated transfection groups. These are pooled data from three independent experiments.
• Cell Culture. HeLa cells (Strain S3) were obtained by ATCC and cultured per their recommendations. Briefly, the cells were grown in Dulbecco modified Eagle medium (DMEM) containing 10% FBS and 0.5% penicillin-streptomycin. Every three days cells were split 1:10 using Trypsin (0.25%) EDTA (0.1%) (Cellgro) to detach the cells. • Reporter Constructs and Expression Vectors. The human IL1B promoter regions (−131+12 and −59/+12 and its mutants (FIG. 1A) were generated by polymerase chain reaction (PCR) and inserted into pGL3-Basic vector (Promega) at Mlu I and BgI II or Hind III sites to construct promoter-luciferase reporter plasmids. The HCMV IE expression vectors pEQ273 and pEQ326 contain the genomic HCMV IE DNA inserted into pGEM1 vector. The plasmids expressing full-length NFIL6 and a truncated version with an internal deletion between the two Spl I restriction sites were constructed by inserting the NFIL6 cDNAs into expression vectors pcDNA3.1 or pcDNA1 (Invitrogen) (Tsukada, J., K. Saito, et al. (1994) Mol Cell Biol 14(11): 7285-97). […] Twenty-four or forty-eight hours after transfection, the activities of luciferase and β-galactosidae activity were determined (using reagents from Promega) to measure promoter activity and allow normalization of luciferase activity in each experiment, respectively. […]
For orientation: Reporter assays use an easily measured gene product as a stand-in for the process of interest.

The target in the next assay is T1, C/EBPβ bZIP domain (Homo sapiens, UniProt P17676).
T1 construct: PCR-amplified fragment of NFIL6 encoding amino acids 269-345 into pcDNA3.1; made in house; host or cells: in vitro translation, rabbit reticulocyte lysate (TNT T7 Quick Coupled, Promega), 35S-methionine label
Nature of the assay: GST fusion pull-down assay with radiolabeled C/EBPβ bZIP domain probe. Format: binding. The settings on record: autoradiography, FIG. 5. The method, then:
(§1) Interaction of the indicated probes is retained to the control peptides IE2 291-343 and IE2 291-364.
(§2) • Cell Culture. HeLa cells (Strain S3) were obtained by ATCC and cultured per their recommendations. Briefly, the cells were grown in Dulbecco modified Eagle medium (DMEM) containing 10% FBS and 0.5% penicillin-streptomycin. Every three days cells were split 1:10 using Trypsin (0.25%) EDTA (0.1%) (Cellgro) to detach the cells. • Reporter Constructs and Expression Vectors. The human IL1B promoter regions (−131+12 and −59/+12 and its mutants (FIG. 1A) were generated by polymerase chain reaction (PCR) and inserted into pGL3-Basic vector (Promega) at Mlu I and BgI II or Hind III sites to construct promoter-luciferase reporter plasmids. The HCMV IE expression vectors pEQ273 and pEQ326 contain the genomic HCMV IE DNA inserted into pGEM1 vector. The plasmids expressing full-length NFIL6 and a truncated version with an internal deletion between the two Spl I restriction sites were constructed by inserting the NFIL6 cDNAs into expression vectors pcDNA3.1 or pcDNA1 (Invitrogen) (Tsukada, J., K. Saito, et al. (1994) Mol Cell Biol 14(11): 7285-97). The expression vector containing the bZIP region of NFIL6 was constructed by inserting a PCR-amplified fragment of NFIL6 encoding amino acids 269-345 into pcDNA3.1 (Yang, Z., N. Wara-Aswapati, et al. (2000) J Biol Chem 275(28): 21272-7). • Transfections and Reporter Gene Assays. HeLa (S3) cells were transfected with expression vectors and luciferase reporter plasmids using Effectene reagents (Qiagen Inc.). Cells were seeded into 24-well plates 24 hours before transfection. […] Expression from these vectors was confirmed by western blotting. Twenty-four or forty-eight hours after transfection, the activities of luciferase and β-galactosidae activity were determined (using reagents from Promega) to measure promoter activity and allow normalization of luciferase activity in each experiment, respectively. […] Gels were stained with SimplyBlue Safestain (Invitrogen) for protein determination and analyzed for binding using autoradiography. […]

In a further assay the target is T2, Spi-1 ETS domain (Homo sapiens, UniProt P17947).
T2 construct: made in house; host or cells: in vitro translation, rabbit reticulocyte lysate (TNT T7 Quick Coupled, Promega), 35S-methionine label
Nature of the assay: GST fusion pull-down assay with radiolabeled Spi-1 ETS domain probe. The settings on record: autoradiography, FIG. 5. Format: binding. The method, then:
as §1, §2

In another assay the test system is GFP expression vector. Nature of the assay: Specificity control: expression of control GFP vector by flow cytometry in HeLa-S3 cells. The settings on record: HeLa-S3, cotransfection, 24 hours, FIG. 4D. Type of assay: cell-based. The method, then: (§3) FIGS. 4A-4D. […] FIG. 4D is another specificity control showing that a control GFP expression vector was not affected by either IE2 291-343 or IE2 291-364. HeLa-S3 cells were transfected with both a GFP expression vector and cotransfected with either E2 291-343 or IE 291-364 expression vectors and GFP expression analyzed 24 hours later by a fluorescence activated cell sorter.
(§4) Because the IE2 291-364 region was previously mapped as one of three TBP binding sites on IE2, it was possible that the inhibitory function was due to interaction with TBP. To exclude this possibility, the expression of two other genes that contain TATA boxes in their promoters were investigated. First, an observed the expression of C/EBPβ from the expression vector by western blot (FIG. 4C) was conducted. […] Second, His-tagged inhibitors were cotransfected with ev GFP and the geometric mean brightness of transfected cells measured by flow cytometry (FIG. 4D). […] It is believed that the basis for the interaction is localized to residues 315-328 of the IE2 molecule because a variant of IE2 291-364 missing the 315-328 region (delA) lacks binding to Spi-1 ETS domain in a GST fusion pull-down assay (FIG. 5).
In general terms: In flow cytometry, cells or beads pass a laser one at a time.

Another assay concerns the target T3, IE2 (Human cytomegalovirus, UniProt P19893).
T3 construct: made in house; host or cells: in vitro translation, rabbit reticulocyte lysate (TNT T7 Quick Coupled, Promega), 35S-methionine label
Nature of the assay: GST fusion pull-down assay with radiolabeled IE2 probe. Type of assay: binding. The conditions noted are these: autoradiography, FIG. 5. The procedure:
as §1, §2

The subject of another assay is IL-1β promoter reporter. Nature of the assay: Full-length IL-1β regulatory region luciferase reporter in LPS-stimulated RAW264.7 monocytic cells. Format: cell-based. An excerpt: FIG. 3 depicts that IE2 291-364 fragment inhibits full-length IL-1β reporter in the monocytic cell line RAW264.7. A luciferase gene reporter was made by splicing the native IL-1β upstream fragment (XT), which contains the enhancer through promoter sequences, upstream of the luciferase gene. This was cotransfected (in titrated doses) with pCDNA 3.1/V5-His empty vector (control) or pCDNA 3.1/V5-His IE2 291-364 by calcium phosphate precipitation into RAW 264.7 cells. To activate the reporter, cells were stimulated with LPS.
FIG. 6 depicts increasing amounts of vector expressing either IE2 291-364Δ315-328 or IE2 291-364 transfected into RAW cells with full length IL-1β regulatory protein as a luciferase reporter. After transient transfection by CaPO4, RAW cell lysates were used for measurement by luminometry and results normalized to β-galactosidase activity introduced by a co-transfected β-galactosidase expression vector to control for transfection efficiency. Values for IE2 291-364Δ315-328 are reported as percentages of relative luciferase activity compared to the wild-type fragment 315-264, as shown.
To further verify the effect of IE2 291-364, a test was conducted in the RAW 264.7 cell line. […] When the RAW 264.7 cell line was treated with the bacterial cell wall product LPS, it produced IL-1β similar to what normal monocytes would do. The IE2-291-364 peptide inhibited IL-1β promoter reporter by about 50% in this system (FIG. 3).
In order to more rigorously test the inhibitory capabilities of the IE2 peptides on IL1B gene expression, a complete monocyte-specific 3.8 kbp regulatory region of the IL1B gene containing both the LPS-responsive enhancer and the cell-type specific Spi-1-dependent promoter (Shirakawa, F., K. Saito, et al. (1993). Mol Cell Biol 13(3): 1332-44) was transfected as a luciferase reporter into LPS-treated RAW264.7 monocyte cells.

Another assay has as its system C/EBPβ. Nature of the assay: Specificity control: C/EBPβ expression by western blot of transfected HeLa-S3 lysates. Type of assay: cell-based. The settings on record: HeLa-S3 cell lysates, FIG. 4C. The method, then:
as §3, §4
For orientation: Immunoblotting shows a protein as a band on a membrane.

T3 sequence (P19893 whole entry): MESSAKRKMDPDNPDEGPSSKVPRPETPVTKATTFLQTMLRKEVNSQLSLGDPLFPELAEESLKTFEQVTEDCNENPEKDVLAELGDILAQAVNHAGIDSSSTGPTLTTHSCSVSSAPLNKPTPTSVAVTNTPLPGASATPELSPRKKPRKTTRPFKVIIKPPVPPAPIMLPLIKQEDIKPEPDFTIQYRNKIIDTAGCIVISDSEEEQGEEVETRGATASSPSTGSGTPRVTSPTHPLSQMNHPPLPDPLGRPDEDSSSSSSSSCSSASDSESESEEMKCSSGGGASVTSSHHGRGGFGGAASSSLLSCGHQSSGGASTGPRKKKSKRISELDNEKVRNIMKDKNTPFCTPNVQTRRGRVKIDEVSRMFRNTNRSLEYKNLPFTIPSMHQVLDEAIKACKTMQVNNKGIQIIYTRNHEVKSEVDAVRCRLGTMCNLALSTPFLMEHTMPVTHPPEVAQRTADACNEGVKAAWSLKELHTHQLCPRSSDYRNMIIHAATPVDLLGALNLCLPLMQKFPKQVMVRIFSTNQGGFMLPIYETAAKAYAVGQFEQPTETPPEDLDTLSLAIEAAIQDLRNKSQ
T1 sequence (P17676 269-345): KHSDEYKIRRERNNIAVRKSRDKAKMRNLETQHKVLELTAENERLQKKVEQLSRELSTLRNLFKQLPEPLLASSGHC

Turning to “GFP-IE2 291-343 (SSHHGRGGFGGAASSSLLSCGHQSSGGASTGPRKKKSKRISELDNEKVRNIMK; also: GFP fusion)”, the “inhibition of IL-1β promoter (HT reporter) activity by GFP fusion product” value with IL-1β promoter (Spi-1 and C/EBPβ transactivation, GFP-expressing cells purified by FACS, FIG. 4B) is “inhibition of IL-1β promoter activity”.

With “IE2 291-343: hCMV IE2 protein amino acid residues 291-343”, in the assay with C/EBPβ bZIP domain, the “interaction with C/EBPβ bZIP domain probe” value is reported as “retained”. In the assay with Spi-1 ETS domain, the “interaction with Spi-1 ETS domain probe” value is given as “retained”. Besides, in the assay with GFP expression vector, the “effect on GFP expression from control GFP vector” value is “not affected”. For the same substance, the “inhibition of cooperative transactivation of the IL-1β promoter” value in the assay with IL-1β promoter is “inhibited”. For the same substance, the “interaction with IE2 probe” value with IE2 was “retained”.

In the case of “IE2 291-364: hCMV IE2 protein amino acid residues 291-364, expressed from vector (His tag or GST fusion)”, in the assay on IL-1β promoter reporter (LPS-treated RAW264.7, His-tagged expression vector, FIG. 6), the “dose dependence of inhibition of 3.8 kbp IL1B regulatory region reporter activity” value is recorded as “dose-dependent inhibition”. Further, the “inhibition of full-length IL-1β reporter (XT)” value in the assay with IL-1β promoter reporter (RAW264.7, LPS stimulated, cotransfected pCDNA 3.1/V5-His IE2 291-364, FIG. 3) was “inhibits”. In the assay with IL-1β promoter reporter (RAW 264.7 cells treated with LPS, FIG. 3), the “inhibition of IL-1β promoter reporter” value was “about 50%”. For the same substance, in the assay on C/EBPβ, the “effect on expression of C/EBPβ protein (western blot)” value is “does not inhibit”. Moreover, the “interaction with C/EBPβ bZIP domain probe” value with C/EBPβ bZIP domain is recorded as “retained”. The “interaction with Spi-1 ETS domain probe” value with Spi-1 ETS domain is on record as “retained”. Further, the “effect on GFP expression from control GFP vector” value with GFP expression vector is recorded as “not affected”. In the assay on IL-1β promoter, the “inhibition of cooperative transactivation of the IL-1β promoter” value is “inhibited”. Moreover, the “interaction with IE2 probe” value in the assay with IE2 is “retained”.

Regarding “delA (SSHHGRGGFGGAASSSLLSCGHQSRISELDNEKVRNIMKDKNTPFCTPNVQTRRGRVKID; not fully specified; cysteine pairing not given here) [reference compound]”, the “interaction with C/EBPβ bZIP domain probe” value with C/EBPβ bZIP domain is reported as “loss of interaction”. Besides, in the assay with Spi-1 ETS domain, the “interaction with Spi-1 ETS domain probe” value is on record as “lacks binding; also recorded: loss of interaction”. In addition, in the assay with IE2, the “interaction with IE2 probe” value was “loss of interaction”.

Take “full length wild-type IE2: CMV encoded transactivator Immediate Early 2 protein, full length”: in the assay on IL-1β promoter (full length wild-type IE2 added to Spi-1 and C/EBPβ transfection, HeLa-S3, FIG. 1D), the “increase of IL-1β promoter reporter activity” value is 4-10 fold.
